Measurements as given in patent publication US4151273A, “Increasing the absorption rate of insoluble drugs” (priority 1978, dated 1979).
Values after ≈ are worked out from the molar mass of the structure shown. “Also recorded” adds a separate entry of the source.

How the values were obtained:
Format in all cases: physicochemical
[1] = Dissolution studies involving other materials (time for 20% dissolution); details: in water
From the text: Dissolution studies were similarly made involving other materials.

[2] = Dissolution rate study of griseofulvin compositions (saturation dissolution apparatus); details: for 20% dissolution time: 5 mg gris in 500 ml water at 25°, 100 r.p.m.
Experimental: A recycling and automatic recording system was used for all dissolution rate studies. The dissolution rate of gris in different physical forms were run in 500 ml. distilled water in a 600 ml. beaker at room temperature.
Unless otherwise specified, samples of 80 to 200 mesh powder were transferred directly into the dissolution medium and stirred with a stainless steel paddle. The paddle, 5.5 × 2.7 cm., was placed at the center of a 500 ml. dissolution medium and rotated at a rate of 100 r.p.m. The solution was pumped by a peristatic pump (Multi-speed Transmission, model No. 6000-000, available from the Harvard Apparatus Co., Dover, Mass.) at a rate of 80 to 100 ml./min. through a glass filter stick to a 1-cm. flow cell and then back to the dissolution apparatus. The absorbance of the solution is monitored by a recording Beckman DB spectrophotometer at either the miximum peak of gris, 292 mu., or minimum absorbance, 272 mu. depending upon the concentration of gris. In the system of gris-PEG 20,000, 324 mu. was used because of possible interference of absorption by the polymer at 272 mu. The volume of the solution in the tubing of the recycling system is about 10 ml. At the flow rate used, the monitored absorbance will reach 90% of the equilibrium valve in 15 sec. Therefore, the lag time in the measurement of dissolution rate is essentially negligible. In the study of the dissolution rate at room temperature, the water is preadjusted to 25° C. The ambient temperature of the room ranged less than 2° from this temperature.
Samples of micronized gris and of gris of 100 to 200 mesh particle size distribution were also run. […] All samples were run in duplicate.
^a Five milligrams gris in 500 ml. of water at 25°.
^b Dissolution times taken from recorded absorbance readings.

[3] = Stability of gris on preparing the solid solutions (melting point, spectra, thin layer chromatography); details: following solvent or direct fusion methods
From the text: A number of tests were made to establish that the gris was not decomposed in any manner following either the solvent or the direct fusion methods of preparing the solid solutions. The melting point, the spectra of the ultra-violet, the infrared and fluorescence are all identical to those of the gris used as a starting material.

[4] = Solubility of griseofulvin in water; details: 25° C., read-out: solubility of gris

SMILES	time to 20% dissolution [1]	20% dissolution time [2] [min]	further results
CC(=O)OCC(=O)[C@@]1(O)CC[C@H]2[C@@H]3CCC4=CC(=O)C=C[C@]4(C)[C@H]3[C@@H](O)C[C@@]21C [prednisolone acetate]	8 min		
COC1=CC(=O)C[C@@H](C)[C@]12Oc1c(Cl)c(OC)cc(OC)c1C2=O [Micronizied gris (nonwetted), griseofulvin]		25.0	dissolution rate (in words) ([2]; compared with other gris forms, wetting with 2 ml of 0.2% polysorbate (Tween 20), micronized gris): markedly slower than that of the same powder when wetted first; also recorded: almost the same dissolution rate as the 100-200 mish gris
COC1=CC(=O)C[C@@H](C)[C@]12Oc1c(Cl)c(OC)cc(OC)c1C2=O [gris, griseofulvin]			decomposition of gris (in words) [3]: no additional spots were detected; solubility [4]: 10 µg/mL (≈ 28.3 µM)
COC1=CC(=O)C[C@@H](C)[C@]12Oc1c(Cl)c(OC)cc(OC)c1C2=O [100-200 Mesh pure gris, griseofulvin]		60.0	
COC1=CC(=O)C[C@@H](C)[C@]12Oc1c(Cl)c(OC)cc(OC)c1C2=O [Micronized gris (wetted), griseofulvin]		2.0	
C[C@H]1O[C@@H](O[C@H]2[C@@H](O)C[C@H](O[C@H]3[C@@H](O)C[C@H](O[C@H]4CC[C@@]5(C)[C@H](CC[C@@H]6[C@@H]5CC[C@]5(C)[C@@H](C7=CC(=O)OC7)CC[C@]65O)C4)O[C@@H]3C)O[C@@H]2C)C[C@H](O)[C@@H]1O [microcrystalline digitoxin, digitoxin]	about 15 minutes		
CC(=O)OCC(=O)[C@@]1(O)CC[C@H]2[C@@H]3CCC4=CC(=O)CC[C@]4(C)[C@H]3[C@@H](O)C[C@@]21C [hydrocortisone acetate]	more than 20 minutes		
C[C@]12CCC(=O)C=C1CC[C@@H]1[C@@H]2CC[C@@]2(C)[C@H]1CC[C@]2(C)O [methyltestosterone]	2 min		
